Test results taken from PubChem BioAssay AID248 (DTP/NCI, 2004).
Values joined by “and” are separate entries in the source; they are usually repeats but may differ in a detail not shown here. Equal entries are not always repeated. Toxic doses and inconclusive results are not listed. Cut-off read from the data, not from the text of the source: active = T/C of 150% or more; inactive = T/C below 125%.

Tested on: L1210 leukemia ip in BDF1 mice, survival T/C
Assay: NCI In Vivo Anticancer Drug Screen. Data for tumor model L1210 Leukemia (intraperitoneal) in B6D2F1 (BDF1) mice
Settings: endpoint: mean survival time, higher = longer survival
Outline: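 Value reflects the ratio of survival in compound-treated mice to survival in vehicle-treated controls, with both groups carrying the same transplanted tumor.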

[1] = dose: 100.0 mg/kg/injection, schedule: Q01DX009 (ip), vehicle: saline
[2] = dose: 100.0 mg/kg/injection, schedule: Q04DX003 (ip), vehicle: saline
[3] = dose: 200.0 mg/kg/injection, schedule: Q01DX009 (ip), vehicle: saline
[4] = dose: 200.0 mg/kg/injection, schedule: Q04DX003 (ip), vehicle: saline
[5] = dose: 400.0 mg/kg/injection, schedule: Q01DX009 (ip), vehicle: saline
[6] = dose: 400.0 mg/kg/injection, schedule: Q04DX003 (ip), vehicle: saline
[7] = dose: 25.0 mg/kg/injection, schedule: Q04DX002 (ip), vehicle: Klucel (hydroxypropylcellulose) (HPC)
[8] = dose: 50.0 mg/kg/injection, schedule: Q04DX002 (ip), vehicle: Klucel (hydroxypropylcellulose) (HPC)
[9] = dose: 100.0 mg/kg/injection, schedule: Q01DX001 (ip), vehicle: saline
[10] = dose: 200.0 mg/kg/injection, schedule: Q01DX001 (ip), vehicle: saline
[11] = dose: 25.0 mg/kg/injection, schedule: Q04DX003 (ip), vehicle: Klucel (hydroxypropylcellulose) (HPC)
[12] = dose: 50.0 mg/kg/injection, schedule: Q01DX009 (ip), vehicle: Klucel (hydroxypropylcellulose) (HPC)
[13] = dose: 50.0 mg/kg/injection, schedule: Q04DX003 (ip), vehicle: Klucel (hydroxypropylcellulose) (HPC)
[14] = dose: 100.0 mg/kg/injection, schedule: Q04DX003 (ip), vehicle: Klucel (hydroxypropylcellulose) (HPC)
[15] = dose: 200.0 mg/kg/injection, schedule: Q04DX003 (ip), vehicle: Klucel (hydroxypropylcellulose) (HPC)
[16] = dose: 400.0 mg/kg/injection, schedule: Q04DX003 (ip), vehicle: Klucel (hydroxypropylcellulose) (HPC)
[17] = dose: 100.0 mg/kg/injection, schedule: Q01DX009 (ip), vehicle: saline with Tween-80
[18] = dose: 100.0 mg/kg/injection, schedule: Q04DX003 (ip), vehicle: saline with Tween-80
[19] = dose: 200.0 mg/kg/injection, schedule: Q04DX003 (ip), vehicle: saline with Tween-80
[20] = dose: 100.0 mg/kg/injection, schedule: Q01DX009 (ip), vehicle: Klucel (hydroxypropylcellulose) (HPC)
[21] = dose: 200.0 mg/kg/injection, schedule: Q01DX009 (ip), vehicle: Klucel (hydroxypropylcellulose) (HPC)

Measured: T/C

Cn1c(O)c(C=N)c(=O)[nH]c1=O
inactive: [1] 86 % of control | [2] 90 % of control | [3] 88 % of control | [4] 92 % of control | [5] 86 % of control | [6] 90 % of control

Cc1cc(C)c(CS)c(C)c1
inactive: [7] 98 % of control | [8] 95 % of control | dose: 100.0 mg/kg/injection, schedule: Q04DX002 (ip), vehicle: Klucel (hydroxypropylcellulose) (HPC) 98 % of control | dose: 200.0 mg/kg/injection, schedule: Q04DX002 (ip), vehicle: Klucel (hydroxypropylcellulose) (HPC) 95 % of control | dose: 400.0 mg/kg/injection, schedule: Q04DX002 (ip), vehicle: Klucel (hydroxypropylcellulose) (HPC) 100 % of control

CCCCCCCCCCCCc1cc2ccccc2c2ccccc12
inactive: [9] 98 % of control | [10] 95 % of control | dose: 400.0 mg/kg/injection, schedule: Q01DX001 (ip), vehicle: saline 89 % of control

CC1(C)N=C(N)N=C(N)N1c1cc(Cl)c(Cl)cc1Cl
inactive: dose: 6.0 mg/kg/injection, schedule: Q01DX009 (ip), vehicle: Klucel (hydroxypropylcellulose) (HPC) 105 % of control | dose: 12.0 mg/kg/injection, schedule: Q01DX009 (ip), vehicle: Klucel (hydroxypropylcellulose) (HPC) 103 % of control | dose: 12.0 mg/kg/injection, schedule: Q04DX003 (ip), vehicle: Klucel (hydroxypropylcellulose) (HPC) 95 % of control | dose: 25.0 mg/kg/injection, schedule: Q01DX009 (ip), vehicle: Klucel (hydroxypropylcellulose) (HPC) 96 % of control and 102 % of control | [11] 101 % of control | [12] 108 % of control | [13] 102 % of control

Cc1nonc1C
inactive: dose: 31.2 mg/kg/injection, schedule: Q01DX Z (ip), vehicle: other 100 % of control | dose: 62.5 mg/kg/injection, schedule: Q01DX Z (ip), vehicle: other 90 % of control | [14] 103 % of control | dose: 125.0 mg/kg/injection, schedule: Q01DX Z (ip), vehicle: other 88 % of control | [15] 98 % of control | dose: 250.0 mg/kg/injection, schedule: Q01DX Z (ip), vehicle: other 90 % of control | [16] 106 % of control

ClC1(Cl)CC1c1ccccc1 (stereo not given)
inactive: [17] 101 % of control | dose: 200.0 mg/kg/injection, schedule: Q01DX009 (ip), vehicle: saline with Tween-80 91 % of control

COCc1ccc(COC)cc1
inactive: [1] 96 % of control | [2] 103 % of control | [3] 95 % of control | [4] 108 % of control | [5] 98 % of control | [6] 100 % of control

CN(C)C(=S)Oc1ccccc1C1(C)OCCO1
inactive: dose: 100.0 mg/kg/injection, schedule: Q01DX001 (ip), vehicle: saline with Tween-80 97 % of control | dose: 200.0 mg/kg/injection, schedule: Q01DX001 (ip), vehicle: saline with Tween-80 98 % of control | dose: 400.0 mg/kg/injection, schedule: Q01DX001 (ip), vehicle: saline with Tween-80 96 % of control

CNC(=S)N/N=C/c1ccc([N+](=O)[O-])s1
inactive: [18] 90 % of control | [19] 90 % of control | dose: 400.0 mg/kg/injection, schedule: Q04DX003 (ip), vehicle: saline with Tween-80 89 % of control

COc1ccc2c(OC)c3ccoc3nc2c1OC
inactive: dose: 25.0 mg/kg/injection, schedule: Q01DX Z (ip), vehicle: carboxymethylcellulose (CMC) 97 % of control | dose: 50.0 mg/kg/injection, schedule: Q01DX Z (ip), vehicle: carboxymethylcellulose (CMC) 100 % of control

CN=C(NC)c1ccc(NC(=O)c2cc(C)cc(C(=O)Nc3ccc(C(=NC)NC)cc3)c2)cc1
inactive: dose: 1.88 mg/kg/injection, schedule: Q01DX Z (ip), vehicle: saline 89 % of control | dose: 3.75 mg/kg/injection, schedule: Q01DX Z (ip), vehicle: saline 91 % of control | dose: 7.5 mg/kg/injection, schedule: Q01DX Z (ip), vehicle: saline 91 % of control | dose: 15.0 mg/kg/injection, schedule: Q01DX Z (ip), vehicle: saline 98 % of control and 107 % of control | dose: 30.0 mg/kg/injection, schedule: Q01DX Z (ip), vehicle: saline 101 % of control

Cc1ncnc2c1CCC2
inactive: dose: 50.0 mg/kg/injection, schedule: Q01DX009 (ip), vehicle: saline with Tween-80 96 % of control | [17] 105 % of control | [18] 97 % of control | [19] 97 % of control

COc1cc(-c2cc(-c3ccccc3)c3cc(Cl)ccc3n2)cc(OC)c1OC
inactive: [12] 90 % of control | [20] 88 % of control | [21] 93 % of control

CC(C)CNC(=S)Nc1ccccc1
inactive: dose: 75.0 mg/kg/injection, schedule: Q01DX001 (ip), vehicle: other 98 % of control | dose: 150.0 mg/kg/injection, schedule: Q01DX001 (ip), vehicle: other 98 % of control | dose: 300.0 mg/kg/injection, schedule: Q01DX001 (ip), vehicle: other 102 % of control

COC(=O)C12c3ccccc3C(c3ccccc31)c1c(N=O)ccc(NO)c12
inactive: [11] 100 % of control | [13] 97 % of control | dose: 100.0 mg/kg/injection, schedule: Q01DX001 (ip), vehicle: Klucel (hydroxypropylcellulose) (HPC) 99 % of control | [14] 94 % of control | dose: 200.0 mg/kg/injection, schedule: Q01DX001 (ip), vehicle: Klucel (hydroxypropylcellulose) (HPC) 90 % of control | [15] 102 % of control | dose: 400.0 mg/kg/injection, schedule: Q01DX001 (ip), vehicle: Klucel (hydroxypropylcellulose) (HPC) 89 % of control | [16] 105 % of control

Cc1cnc2cccc(C)c2c1Cl
inactive: dose: 50.0 mg/kg/injection, schedule: Q01DX001 (ip), vehicle: saline 101 % of control | [9] 97 % of control | [10] 95 % of control

O=C(O)c1ccc(S(=O)(=O)Cl)cc1
inactive: dose: 12.5 mg/kg/injection, schedule: Q04DX002 (ip), vehicle: Klucel (hydroxypropylcellulose) (HPC) 97 % of control | [7] 90 % of control | [8] 107 % of control

CCc1ccc(NC(=S)NC(=O)c2ccccc2OC)cc1
inactive: dose: 100.0 mg/kg/injection, schedule: Q01DX009 (ip), vehicle: other 98 % of control | dose: 200.0 mg/kg/injection, schedule: Q01DX009 (ip), vehicle: other 103 % of control | dose: 400.0 mg/kg/injection, schedule: Q01DX009 (ip), vehicle: other 93 % of control

CCOC(=O)C1CCC/C1=N\N=C(N)N (stereo not given) (tested in a mixture with another compound)
inactive: dose: 15.0 mg/kg/injection, schedule: Q01DX Z (ip), vehicle: methylcellulose (MC) 95 % of control | dose: 30.0 mg/kg/injection, schedule: Q01DX Z (ip), vehicle: methylcellulose (MC) 102 % of control | dose: 60.0 mg/kg/injection, schedule: Q01DX Z (ip), vehicle: methylcellulose (MC) 104 % of control | dose: 60.0 mg/kg/injection, schedule: Q01DX Z (oral), vehicle: methylcellulose (MC) 86 % of control | dose: 120.0 mg/kg/injection, schedule: Q01DX Z (ip), vehicle: methylcellulose (MC) 97 % of control | dose: 120.0 mg/kg/injection, schedule: Q01DX Z (oral), vehicle: methylcellulose (MC) 94 % of control | dose: 240.0 mg/kg/injection, schedule: Q01DX Z (oral), vehicle: methylcellulose (MC) 92 % of control

Cc1ccc([PH+](c2ccc(C)cc2)c2ccc(C)cc2)cc1.Cc1ccc([PH+](c2ccc(C)cc2)c2ccc(C)cc2)cc1.[Cl][Hg][Cl]
inactive: [12] 86 % of control | [20] 91 % of control | [21] 86 % of control

CC(/C=N/NC(N)=S)=N\N=C(N)N
inactive: dose: 15.0 mg/kg/injection, schedule: Q01DX Z (ip), vehicle: carboxymethylcellulose (CMC) 98 % of control | dose: 30.0 mg/kg/injection, schedule: Q01DX Z (ip), vehicle: carboxymethylcellulose (CMC) 101 % of control | dose: 60.0 mg/kg/injection, schedule: Q01DX Z (ip), vehicle: carboxymethylcellulose (CMC) 98 % of control | dose: 120.0 mg/kg/injection, schedule: Q01DX Z (ip), vehicle: carboxymethylcellulose (CMC) 98 % of control
